Test results as given in US20260146035A1, “FUSED BICYCLIC COMPOUNDS AND THEIR USE AS MER AND AXL INHIBITORS” (DONG-A ST CO., LTD., priority 2022, published 2026).
Read-outs that look alike come from different tables or passages of the source.

Tests used:
[1] = biological target: T1, human AXL (473-end) (Homo sapiens, UniProt P30530); test: HTRF kinase activity biochemical assay, AXL; conditions: 10 μM ATP, 30 minutes pre-incubation
T1 construct: human AXL (473-end); purchased SignalChem, Canada
T1 sequence (P30530 473-894 limits assumed): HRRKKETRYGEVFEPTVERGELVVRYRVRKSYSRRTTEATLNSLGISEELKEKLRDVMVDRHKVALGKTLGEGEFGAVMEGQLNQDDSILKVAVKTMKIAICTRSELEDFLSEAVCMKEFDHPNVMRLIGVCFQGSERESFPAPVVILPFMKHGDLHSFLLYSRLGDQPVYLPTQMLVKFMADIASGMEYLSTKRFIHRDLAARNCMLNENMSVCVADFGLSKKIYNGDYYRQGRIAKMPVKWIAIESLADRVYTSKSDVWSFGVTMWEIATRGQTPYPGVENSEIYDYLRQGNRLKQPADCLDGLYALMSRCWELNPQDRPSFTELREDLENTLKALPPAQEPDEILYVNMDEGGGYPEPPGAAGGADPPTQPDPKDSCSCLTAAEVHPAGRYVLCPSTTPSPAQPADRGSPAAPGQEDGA

[2] = biological target: T2, human MER (528-end) (Homo sapiens, UniProt Q12866); test: HTRF kinase activity biochemical assay, MER; conditions: 10 μM ATP, 30 minutes pre-incubation; read-out: HTRF MERTK IC50
T2 construct: human MER (528-end); purchased Camnabio, Japan
T2 sequence (Q12866 528-999 limits assumed): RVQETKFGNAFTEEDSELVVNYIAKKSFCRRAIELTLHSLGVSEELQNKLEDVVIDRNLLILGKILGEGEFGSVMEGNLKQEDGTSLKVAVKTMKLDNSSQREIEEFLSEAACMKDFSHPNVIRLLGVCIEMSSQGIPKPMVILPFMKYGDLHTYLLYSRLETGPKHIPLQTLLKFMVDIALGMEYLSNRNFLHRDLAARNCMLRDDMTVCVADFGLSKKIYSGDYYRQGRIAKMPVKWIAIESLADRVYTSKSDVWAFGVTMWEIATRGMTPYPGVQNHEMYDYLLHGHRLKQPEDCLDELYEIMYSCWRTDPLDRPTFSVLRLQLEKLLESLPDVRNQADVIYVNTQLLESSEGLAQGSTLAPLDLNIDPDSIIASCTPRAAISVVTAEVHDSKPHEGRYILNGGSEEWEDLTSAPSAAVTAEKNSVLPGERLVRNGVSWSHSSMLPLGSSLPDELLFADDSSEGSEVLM

[3] = biological target: T3, human TYRO3 (455-end) (Homo sapiens, UniProt Q06418); test: HTRF kinase activity biochemical assay, TYRO3
T3 construct: TYRO3 (455-end); purchased SignalChem, Canada
T3 sequence (Q06418 455-890 limits assumed): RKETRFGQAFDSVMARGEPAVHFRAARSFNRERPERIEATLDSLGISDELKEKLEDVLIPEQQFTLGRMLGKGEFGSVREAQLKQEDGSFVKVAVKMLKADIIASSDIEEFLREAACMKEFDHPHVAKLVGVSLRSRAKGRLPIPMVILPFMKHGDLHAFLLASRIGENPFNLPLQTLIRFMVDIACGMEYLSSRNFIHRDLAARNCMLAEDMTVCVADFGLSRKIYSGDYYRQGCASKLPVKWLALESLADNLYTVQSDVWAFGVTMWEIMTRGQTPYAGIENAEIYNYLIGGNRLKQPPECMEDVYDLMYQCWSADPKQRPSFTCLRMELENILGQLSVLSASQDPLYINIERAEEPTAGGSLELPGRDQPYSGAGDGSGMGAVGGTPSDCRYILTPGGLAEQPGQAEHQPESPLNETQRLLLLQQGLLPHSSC

[4] = 10 μM ATP, 30 minutes pre-incubation, read-out: HTRF TYRO IC50

Row | Structure (SMILES) | IC50 [1] | IC50 [2] | IC50 [3] | IC50 [3, 4]
1 | CC1(C)C(=O)N(C2CCN(CCO)CC2)c2ccc(-c3ccc(CO[C@H]4CCC[C@@H]4NC(=O)c4cc(-c5ccc(F)nc5)cnc4N)cc3)nc21 [Example 74, 6-amino-6′-fluoro-N-{(1S,2S)-2-[(4-{1-[1-(2-hydroxyethyl)piperidin-4-yl]-3,3-dimethyl-2-oxo-2,3-dihydro-1H-pyrrolo[3,2-b]pyridin-5-yl}phenyl)methoxy]cyclopentyl}[3,3′-bipyridine]-5-carboxamide] | > 1000 nM | 100 to 1000 nM | 100 to 1000 nM | –
2 | CN(CCC(O)CO)C1CCc2cc(-c3ccc(CO[C@H]4CCC[C@@H]4NC(=O)c4cc(-c5cnn(C)c5)cnc4N)cc3)ccc21 (stereo partly drawn) [Example 125, 2-amino-N-{(1S,2S)-2-[(4-{1-[(3,4-dihydroxybutyl)(methyl)amino]-2,3-dihydro-1H-inden-5-yl}phenyl)methoxy]cyclopentyl}-5-(1-methyl-1H-pyrazol-4-yl)pyridine-3-carboxamide] | 10 to 100 nM | 10 to 100 nM | – | > 1000 nM
3 | Cn1cc(-c2cnc(N)c(C(=O)N[C@H]3COC[C@@H]3OCc3ccc(-c4ccc5c(ccn5C)c4)cc3)c2)cn1 [Example 16, 2-amino-N-[(3S,4R)-4-{[4-(1-methyl-1H-indol-5-yl)phenyl]methoxy}oxolan-3-yl]-5-(1-methyl-1H-pyrazol-4-yl)pyridine-3-carboxamide] | 10 to 100 nM | 10 to 100 nM | – | > 1000 nM
4 | Cc1cc(-c2cnc(N)c(C(=O)N[C@H]3CCC[C@@H]3OCc3ccc(-c4ccc5c(c4)CC[C@@H]5N4CCN(CCO)CC4)cc3)c2)sn1 [Example 175, 2-amino-N-{(1S,2S)-2-[(4-{(1S)-1-[4-(2-hydroxyethyl)piperazin-1-yl]-2,3-dihydro-1H-inden-5-yl}phenyl)methoxy]cyclopentyl}-5-(3-methyl-1,2-thiazol-5-yl)pyridine-3-carboxamide] | < 10 nM | < 10 nM | – | 10 to 100 nM
5 | CC1(C)C[C@H](N2CCN(CCO)CC2)c2ccc(-c3ccc(CO[C@H]4CCC[C@@H]4NC(=O)c4cc(-c5ccc(F)nc5)cnc4N)cc3)cc21 [Example 104, 6-amino-6′-fluoro-N-{(1S,2S)-2-[(4-{(1S)-1-[4-(2-hydroxyethyl)piperazin-1-yl]-3,3-dimethyl-2,3-dihydro-1H-inden-5-yl}phenyl)methoxy]cyclopentyl}[3,3′-bipyridine]-5-carboxamide] | < 10 nM | < 10 nM | – | < 10 nM
6 | Cn1cc(-c2cnc(N)c(C(=O)N[C@H]3CCC[C@@H]3OCc3ccc(-c4ccc5c(c4)CC(F)(F)[C@H]5N4CCN(CCO)CC4)cc3)c2)cn1 [Example 66, 2-amino-N-{(1S,2S)-2-[(4-{(1S)-2,2-difluoro-1-[4-(2-hydroxyethyl)piperazin-1-yl]-2,3-dihydro-1H-inden-5-yl}phenyl)methoxy]cyclopentyl}-5-(1-methyl-1H-pyrazol-4-yl)pyridine-3-carboxamide] | 10 to 100 nM | 10 to 100 nM | – | > 1000 nM
7 | Cn1cc(-c2cnc(N)c(C(=O)N[C@H]3CCC[C@@H]3OCc3ccc(-c4cccc5cc[nH]c45)cc3)c2)cn1 [Example 29, 2-amino-N-[(1S,2S)-2-{[4-(1H-indol-7-yl)phenyl]methoxy}cyclopentyl]-5-(1-methyl-1H-pyrazol-4-yl)pyridine-3-carboxamide] | 100 to 1000 nM | 10 to 100 nM | – | > 1000 nM
8 | CC1(C)C[C@@H](N2CCN(CCO)CC2)c2ccc(-c3ccc(CO[C@H]4CCC[C@@H]4NC(=O)c4cc(-c5cccnc5F)cnc4N)cc3)cc21 [Example 135, 6-amino-2′-fluoro-N-{(1S,2S)-2-[(4-{(1R)-1-[4-(2-hydroxyethyl)piperazin-1-yl]-3,3-dimethyl-2,3-dihydro-1H-inden-5-yl}phenyl)methoxy]cyclopentyl}[3,3′-bipyridine]-5-carboxamide] | < 10 nM | < 10 nM | – | 100 to 1000 nM
9 | Cn1cc(-c2cnc(N)c(C(=O)N[C@H]3CCC[C@@H]3OCc3ccc(-c4ccc5c(c4)ncn5C4CCN(CCO)CC4)cc3)c2)cn1 [Example 156, 2-amino-N-{(1S,2S)-2-[(4-{1-[1-(2-hydroxyethyl)piperidin-4-yl]-1H-benzimidazol-5-yl}phenyl)methoxy]cyclopentyl}-5-(1-methyl-1H-pyrazol-4-yl)pyridine-3-carboxamide] | > 1000 nM | 100 to 1000 nM | – | > 1000 nM
10 | CC1(C)CN(C2CCN(CCO)CC2)c2ccc(-c3ccc(CO[C@H]4COC[C@@H]4NC(=O)c4nc(-c5ccc(F)nc5)cnc4N)cc3)cc21 [Example 52, 3-amino-6-(6-fluoropyridin-3-yl)-N-{(3S,4R)-4-[(4-{1-[1-(2-hydroxyethyl)piperidin-4-yl]-3,3-dimethyl-2,3-dihydro-1H-indol-5-yl}phenyl)methoxy]oxolan-3-yl}pyrazine-2-carboxamide] | 10 to 100 nM | < 10 nM | – | 100 to 1000 nM
11 | Cn1cc(-c2cnc(N)c(C(=O)N[C@H]3CCC[C@@H]3OCc3ccc(-c4ccc5[nH]ccc5c4)cc3)c2)cn1 [Example 68, 2-amino-N-[(1S,2S)-2-{[4-(1H-indol-5-yl)phenyl]methoxy}cyclopentyl]-5-(1-methyl-1H-pyrazol-4-yl)pyridine-3-carboxamide] | < 10 nM | < 10 nM | – | 100 to 1000 nM
12 | Cc1[nH]c2ccc(-c3ccc(CO[C@H]4CCC[C@@H]4NC(=O)c4cc(-c5cnn(C)c5)cnc4N)cc3)cc2c1C [Example 55, 2-amino-N-[(1S,2S)-2-{[4-(2,3-dimethyl-1H-indol-5-yl)phenyl]methoxy}cyclopentyl]-5-(1-methyl-1H-pyrazol-4-yl)pyridine-3-carboxamide] | 10 to 100 nM | 10 to 100 nM | – | > 1000 nM
13 | Nc1ncc(-c2ccc(F)nc2)cc1C(=O)N[C@H]1CCC[C@@H]1OCc1ccc(-c2ccc3c(c2)CCC3N2CCN(CCO)CC2)cc1 (stereo partly drawn) [Example 19, 6-amino-6′-fluoro-N-{(1S,2S)-2-[(4-{1-[4-(2-hydroxyethyl)piperazin-1-yl]-2,3-dihydro-1H-inden-5-yl}phenyl)methoxy]cyclopentyl}[3,3′-bipyridine]-5-carboxamide] | < 10 nM | < 10 nM | – | 100 to 1000 nM
14 | Cn1cc(-c2cnc(N)c(C(=O)N[C@H]3CCC[C@@H]3OCc3ccc(-c4cnc5c(c4)CCCN5C4CCN(CCO)CC4)cc3)c2)cn1 [Example 162, 2-amino-N-{(1S,2S)-2-[(4-{8-[1-(2-hydroxyethyl)piperidin-4-yl]-5,6,7,8-tetrahydro-1,8-naphthyridin-3-yl}phenyl)methoxy]cyclopentyl}-5-(1-methyl-1H-pyrazol-4-yl)pyridine-3-carboxamide] | < 10 nM | < 10 nM | – | 10 to 100 nM
15 | Cn1cc(-c2cnc(N)c(C(=O)N[C@H]3CCC[C@@H]3OCc3ccc(-c4ccc5c(ccn5C5CCNCC5)c4)cc3)c2)cn1 [Example 5, 2-amino-5-(1-methyl-1H-pyrazol-4-yl)-N-[(1S,2S)-2-({4-[1-(piperidin-4-yl)-1H-indol-5-yl]phenyl}methoxy)cyclopentyl]pyridine-3-carboxamide] | < 10 nM | < 10 nM | – | 100 to 1000 nM
16 | Cn1cc(-c2cnc(N)c(C(=O)N[C@H]3CCC[C@@H]3OCc3ccc(-c4ccc5c(c4)CCCC5N4CCNCC4)cc3)c2)cn1 (stereo partly drawn) [Example 122, 2-amino-5-(1-methyl-1H-pyrazol-4-yl)-N-[(1S,2S)-2-({4-[5-(piperazin-1-yl)-5,6,7,8-tetrahydronaphthalen-2-yl]phenyl}methoxy)cyclopentyl]pyridine-3-carboxamide] | < 10 nM | < 10 nM | – | 10 to 100 nM
